# Measured values published in patent US10653780B2, “Amino lipids and methods for the delivery of nucleic acids” (ARBUTUS BIOPHARMA CORPORATION, priority 2008, dated 2020).
# Values joined by “and” are separate entries in the source; they are usually repeats but may differ in a detail not shown here. Equal entries are not always repeated. Where two headings read alike, the source gives them in different places.
# Key:
# Factor VII (FVII) [1] = details: for ED50: siRNA dose reducing serum FVII protein by 50% at 24 h, PFV LN-siRNA 40/10/40/10
# Factor VII (FVII) [2] = assay: In vivo FVII activity of nucleic acid-lipid formulations in rats; parameters: species or system SD rats; details: PEG-C-DOMG as PEG-lipid
# Protocol: The ability of various nucleic acid-lipid formulations comprising different cationic lipids was further explored in mice and rats. Each of the tested nucleic acid-lipid formulations was prepared as described above using PEG-C-DOMG as the PEG-lipid. The formulations initially tested (which included either DLin-K-DMA, DLin-K-MPZ, DLin-K-C2-DMA, or DLin-K-C4-DMA) reduced residual FVII levels in both mice (FIG. 3) and rats (FIG. 4). […] The activity of the DLin-K-C2-DMA formulation was approximately 2-3-fold greater than the DLin-K-DMA formulation in mice, and approximately 10-20-fold greater than the DLin-K-DMA formulation in rats. A comparison of FVII reduction in mice and rats using the DLin-K-DMA formulation or the DLin-K-C2-DMA formulation is shown in FIG. 5.
# [3] = assay type: in vivo; details: rats
# Protocol: (§1) Data was recorded as % Change in Body Weight.
# Histopathology results for livers obtained from rats treated with 91 mg/kg (“5” mg/kg) were normal.
# [4] = Tolerability of DLin-K-C2-DMA lipid particles in mice; assay type: in vivo
# Protocol: as §1
# [5] = Bilayer-to-hexagonal HII transition temperature (TBH) in equimolar mixtures with DSPS; assay type: physicochemical
# Description: Both techniques gave similar results.
# transthyretin (TTR) = assay: TTR silencing by KC2-SNALP-formulated siTTR in non-human primates (liver TTR mRNA); assay type: in vivo, Cynomolgus monkeys; details: Macaca fascicularis, iv, single 15 minute i.v. infusion; 48 hours post-administration
# Description: FIGS. 9A-B illustrate the efficacy of KC2-SNALP formulations. FIG. 9A is a graph showing the improved efficacy of KC2-SNALP versus a DLin-K-C2-DMA PFV formulation in mice. The in vivo efficacy of KC2-SNALP (◯) was compared to that of the un-optimized DLin-KC2-DMA PFV formulation (●) in the mouse FVII model. Data points are expressed as a percentage of PBS control animals and represent group mean (n=5)±s.d. FIG. 9B depicts the efficacy of KC2-SNALP in non-human primates. Cynomolgus monkeys (n=3 per group) received either 0.03, 0.1, 0.3 or 1 mg/kg siTTR, or 1 mg/kg siApoB formulated in KC2-SNALP or PBS as 15 minute intravenous infusions (5 mL/kg) via the cephalic vein. Animals were sacrificed at 48 hours post-administration. TTR mRNA levels relative to GAPDH mRNA levels were determined in liver samples. Data points represent group mean±s.d. *=P<0.05; **=P<0.005.
# Given the promising activity and safety profile observed in rodents in the studies described in Example 17, studies were performed in non-human primates to investigate the translation of DLin-KC2-DMA activity in higher species. For these studies, transthyretin (TTR), a hepatic gene of high therapeutic interest, was targeted. […]
# Tissues were harvested at 48 hours post-administration, and liver mRNA levels of TTR were determined. […]
# [6] = In situ determination of apparent pKa using TNS fluorescence titration
# Description: In situ pKa measurements were made using the pH sensitive fluorescent probe TNS, using a modification of the approach previously published in Bailey, A. L. and Cullis, P. R., Biochemistry 33:12573-12580 (1994).
# Titrations of surface charge as a function of pH can then be used to determine the apparent pKa (hereafter referred to as pKa) of constituent lipids (Cullis, P. R., et al., Chem Phys Lipids 40:127-144 (1986)).
smiles,measurement,setting,value
"CCCCC/C=C\C/C=C\CCCCCCCCC1(CCCCCCCC/C=C\C/C=C\CCCCC)OCC(CCN(C)C)O1 (centres unmarked) [DLin-K-C2-DMA, 2,2-Dilinoleyl-4-(2-dimethylaminoethyl)-[1,3]-dioxolane]",ED50,Factor VII (FVII) [1]; Table 6,~0.1 mg/kg
same,FVII ED50,Factor VII (FVII) [1]; Table 11,~0.1 mg/kg
same,fold more potent / greater activity than DLin-K-DMA,Factor VII (FVII) [1]; mice,4 fold and 2-3 fold
same,fold difference in in vivo activity between DLin-K-C2-DMA and DLin-K-C4-DMA,"Factor VII (FVII) [1]; mouse, in vivo",> 30 fold
same,fold more potent than the DLinDMA benchmark,"Factor VII (FVII) [1]; reducing serum FVII protein, mouse, head-to-head",10 fold
same,siRNA dose as low as which in vivo activity was exhibited,Factor VII (FVII) [1]; rodents,0.01 mg/kg
same,ED50,Factor VII (FVII) [1],~0.1 mg/kg
same,encapsulated siRNA sufficient to knockdown serum FVII protein by 50%,"Factor VII (FVII) [1]; single i.v. bolus to a mouse, within 24 h, 40 mole % cationic lipid",~100 picomoles
same,fold greater activity than the DLin-K-DMA formulation,Factor VII (FVII) [2],10-20 fold
same,lipid dose as low as which significant increases in ALT/AST were seen,[3],182 mg/kg lipid
same,liver histopathology,[3]; 91 mg/kg,normal
same,clinical observations and liver appearance,[3]; 91 mg/kg lipid,appeared normal and had normal livers
same,liver histopathology,[3]; 182 mg/kg,"mild to moderate hepatocellular necrosis, centrilobular, and hepatocellular vacuolization"
same,clinical observations,[3]; 182 mg/kg lipid,slower movement and a scruffy coat
same,clinical observations and liver appearance,[3]; 364 mg/kg lipid,"hunched, slower movement, quinting eyes, scruffy coats, piloerection, red/orange uring, with pale and some mottling livers"
same,mortality,[3]; 364 mg/kg lipid,one died
same,body weight,[3]; 24 hours after i.v. treatment,dose-dependent loss of weight
same,body weight,[4]; mice,dose-dependent loss of weight
same,increase in ALT-AST,"[4]; mice, approximately 1100 mg/kg lipid",greater than 10 fold
same,clinical signs,"[4]; mice, except at greater than 1300 mg/kg (hunched, slower movement, scruffy coat)",no obvious clinical signs
same,mortality,"[4]; mouse, in vivo",no mice died
same,TBH lower than that for DLinDMA,[5],7 °C
same,HII transition temperature,"[5]; equimolar with DSPS, pH 4.8, 31P NMR and DSC",20 °C
same,ED50,transthyretin (TTR),0.3 mg/kg
same,pKa,[6],6.4
same,pKa,[6]; nucleic acid-lipid particles containing the cationic lipid,6.4
